We go through 28 compounds from patent US20250382305A1 (PTC THERAPEUTICS, INC., priority 2022, published 2025).

The test system of assay [1] is Total ATXN3 (tATXN3) protein. The assay is described as follows: Endogenous Total ATXN3 (tATXN3) Protein Assay (MSD immunoassay of cell lysates). The assay is classed as cell-based. As to conditions: average IC50, total ATXN3 protein in cell lysate after 48 h with compound (Table 1). Put shortly:
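By electrochemiluminescent MSD sandwich immunoassay (mouse monoclonal capture, rabbit monoclonal and SULFO-TAG anti-rabbit detection), endogenous ATXN3 was quantified in lysates of cells treated 48 h at 37° C at 10,000 cells/well. Treatment used a 7-point 3.16-fold duplicate dilution series, with average IC50 grouped into star categories.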

The test system of another assay is ATXN3 pre-mRNA. Briefly: RT-qPCR Assay to Quantify Exon 4 Skipping in ATXN3 pre-mRNA in Cells. The following applies: percent exon 4 skipping in ATXN3 pre-mRNA, RT-qPCR of cell lysates; average IC50. The assay is classed as cell-based. In short, it runs like this:
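IC50 derives from a dose-response fit of percent exon 4 skipping, quantified by RT-qPCR on crude lysates. Compounds tested as 7-point 3.16-fold dilutions in duplicate; cells (10,000/well) were exposed for 24 h at 37 °C before lysis.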
In general terms: Real-time PCR tracks product formation cycle by cycle.

Broadly, the IC50 is the concentration that gives 50% inhibition.

Take `CC#CCNc1nc(Cl)nc2c(I)c([C@H]3CC=CC[C@@H]3N)sc12` [Compound 219, 6-((1S,6S)-6-aminocyclohex-3-en-1-yl)-N-(but-2-yn-1-yl)-2-chloro-7-iodothieno[3,2-d]pyrimidin-4-amine]: the IC50 (in assay [1]; with ATXN3 pre-mRNA) was at most 30 nM throughout.

For `Cc1c([C@@H]2CC=CC[C@H]2N)sc2c(NCc3cccs3)cc(Cl)nc12` [Compound 220, 2-((1R,6R)-6-aminocyclohex-3-en-1-yl)-5-chloro-3-methyl-N-(thiophen-2-ylmethyl)thieno[3,2-b]pyridin-7-amine], the IC50 (in assay [1]; in the assay on ATXN3 pre-mRNA) was at most 30 nM throughout.

Consider `N[C@H]1CCC(=O)C[C@@H]1c1sc2c(NCc3ccco3)cc(Cl)nc2c1Cl` [Compound 221, (3S,4S)-4-amino-3-(3,5-dichloro-7-((furan-2-ylmethyl)amino)thieno[3,2-b]pyridin-2-yl)cyclohexan-1-one], for which the IC50 (in assay [1]; in the assay with ATXN3 pre-mRNA) was at most 30 nM in each case.

Turning to `Cc1c([C@H]2CC=CC[C@@H]2N)sc2c(NCc3cccs3)cc(Cl)nc12` [Compound 222, 2-((1S,6S)-6-aminocyclohex-3-en-1-yl)-5-chloro-3-methyl-N-(thiophen-2-ylmethyl)thieno[3,2-b]pyridin-7-amine], the IC50 (in assay [1]; in the assay with ATXN3 pre-mRNA) was at most 30 nM in each case.

Take `Cc1c([C@H]2CC=CC[C@@H]2N)sc2c(NCc3nccs3)nc(Cl)nc12` [Compound 223, 6-((1S,6S)-6-aminocyclohex-3-en-1-yl)-2-chloro-7-methyl-N-(thiazol-2-ylmethyl)thieno[3,2-d]pyrimidin-4-amine]: the IC50 (in assay [1]; in the assay with ATXN3 pre-mRNA) was at most 30 nM in each case.

Consider `N[C@H]1CCCO[C@@H]1c1c(I)c2nc(Cl)nc(NCc3ccco3)c2n1C(F)F` [Compound 225, 6-((2S,3S)-3-aminotetrahydro-2H-pyran-2-yl)-2-chloro-5-(difluoromethyl)-N-(furan-2-ylmethyl)-7-iodo-5H-pyrrolo[3,2-d]pyrimidin-4-amine], for which the IC50 (in assay [1]; with ATXN3 pre-mRNA) was at most 30 nM in each case.

As for `N[C@H]1CC=CC[C@@H]1c1sc2c(NCc3ccccc3)nc(Cl)nc2c1I` [Compound 229, 6-((1S,6S)-6-aminocyclohex-3-en-1-yl)-N-benzyl-2-chloro-7-iodothieno[3,2-d]pyrimidin-4-amine], the IC50 (in assay [1]; in the assay on ATXN3 pre-mRNA) was at most 30 nM in each case.

On to `CC#CCNc1cc(Cl)nc2c(Br)c([C@H]3CC=CC[C@@H]3N)sc12` [Compound 230, 2-((1S,6S)-6-aminocyclohex-3-en-1-yl)-3-bromo-N-(but-2-yn-1-yl)-5-chlorothieno[3,2-b]pyridin-7-amine], for which the IC50 (in assay [1]; with ATXN3 pre-mRNA) was at most 30 nM in each case.

For `Cc1c([C@H]2CCCC[C@@H]2N)sc2c(NCc3ccco3)cc(Cl)nc12` [Compound 231, 2-((1S,2S)-2-aminocyclohexyl)-5-chloro-N-(furan-2-ylmethyl)-3-methylthieno[3,2-b]pyridin-7-amine], the IC50 (in assay [1]; with ATXN3 pre-mRNA) was at most 30 nM throughout.

Turning to `Cc1c([C@H]2COCC[C@@H]2N)sc2c(NCc3cccs3)cc(Cl)nc12` [Compound 232, 2-((3R,4S)-4-aminotetrahydro-2H-pyran-3-yl)-5-chloro-3-methyl-N-(thiophen-2-ylmethyl)thieno[3,2-b]pyridin-7-amine], the IC50 (in assay [1]; with ATXN3 pre-mRNA) was at most 30 nM throughout.

For `CC1=C(C)C[C@H](N)[C@@H](c2sc3c(NCc4ccco4)cc(Cl)nc3c2Cl)C1` [Compound 233, 2-((1S,6S)-6-amino-3,4-dimethylcyclohex-3-en-1-yl)-3,5-dichloro-N-(furan-2-ylmethyl)thieno[3,2-b]pyridin-7-amine], the IC50 (in assay [1]; in the assay on ATXN3 pre-mRNA) was at most 30 nM in each case.

On to `Cc1c([C@H]2CC=CC[C@@H]2N)sc2c(NCc3ccncc3)nc(Cl)nc12` [Compound 234, 6-((1S,6S)-6-aminocyclohex-3-en-1-yl)-2-chloro-7-methyl-N-(pyridin-4-ylmethyl)thieno[3,2-d]pyrimidin-4-amine], for which the IC50 (in assay [1]; in the assay on ATXN3 pre-mRNA) was at most 30 nM in each case.

Take `N[C@H]1CC=CC[C@@H]1c1sc2c(NCc3cccs3)cc(Cl)nc2c1C#CCCCCO` [Compound 235, 6-(2-((1S,6S)-6-aminocyclohex-3-en-1-yl)-5-chloro-7-((thiophen-2-ylmethyl)amino)thieno[3,2-b]pyridin-3-yl)hex-5-yn-1-ol]: the IC50 (in assay [1]; with ATXN3 pre-mRNA) was at most 30 nM throughout.

On to `N[C@H]1CC=CC[C@@H]1c1sc2c(NCc3ccncc3F)nc(Cl)nc2c1Cl` [Compound 236, 6-((1S,6S)-6-aminocyclohex-3-en-1-yl)-2,7-dichloro-N-((3-fluoropyridin-4-yl)methyl)thieno[3,2-d]pyrimidin-4-amine], for which the IC50 (in assay [1]; in the assay with ATXN3 pre-mRNA) was at most 30 nM in each case.

Take `N[C@H]1CCCC[C@@H]1c1sc2c(NCc3ccccc3)cc(Cl)nc2c1Cl` [Compound 237, 2-((1S,2S)-2-aminocyclohexyl)-N-benzyl-3,5-dichlorothieno[3,2-b]pyridin-7-amine]: the IC50 (in assay [1]; with ATXN3 pre-mRNA) was at most 30 nM throughout.

Take `N[C@H]1COCC[C@@H]1c1sc2c(NCc3ccco3)cc(Cl)nc2c1Br` [Compound 238, 2-((3R,4S)-3-aminotetrahydro-2H-pyran-4-yl)-3-bromo-5-chloro-N-(furan-2-ylmethyl)thieno[3,2-b]pyridin-7-amine]: the values for the IC50 (in assay [1]; with ATXN3 pre-mRNA) were at most 30 nM and 30 to 300 nM, respectively.

For the compound `N[C@H]1CC=CC[C@@H]1c1sc2c(NCc3ccncc3F)cc(Cl)nc2c1Cl` [Compound 239, 2-((1S,6S)-6-aminocyclohex-3-en-1-yl)-3,5-dichloro-N-((3-fluoropyridin-4-yl)methyl)thieno[3,2-b]pyridin-7-amine], the IC50 (in assay [1]; in the assay on ATXN3 pre-mRNA) was at most 30 nM throughout.

For `N[C@H]1CC=CC[C@@H]1c1sc2c(NCc3ccccc3)nc(Cl)nc2c1Br` [Compound 241, 6-((1S,6S)-6-aminocyclohex-3-en-1-yl)-N-benzyl-7-bromo-2-chlorothieno[3,2-d]pyrimidin-4-amine], the IC50 (in assay [1]; with ATXN3 pre-mRNA) was at most 30 nM each time.

`N#Cc1cc(NCc2ccco2)c2sc([C@H]3CC=CC[C@@H]3N)c(Cl)c2n1` [Compound 242, 2-((1S,6S)-6-aminocyclohex-3-en-1-yl)-3-chloro-7-((furan-2-ylmethyl)amino)thieno[3,2-b]pyridine-5-carbonitrile]: the IC50 (in assay [1]; with ATXN3 pre-mRNA) was at most 30 nM throughout.

As for `N[C@H]1CCCO[C@@H]1c1c(Cl)c2nc(Cl)nc(NCc3ccco3)c2n1C(F)F` [Compound 244, 6-((2S,3S)-3-aminotetrahydro-2H-pyran-2-yl)-2,7-dichloro-5-(difluoromethyl)-N-(furan-2-ylmethyl)-5H-pyrrolo[3,2-d]pyrimidin-4-amine], the concentration for half-maximal inhibition (IC50) (in assay [1]; with ATXN3 pre-mRNA) was at most 30 nM in each case.

For the compound `Cc1c([C@H]2CC=CC[C@@H]2N)sc2c(NCc3cccs3)cc(C#N)nc12` [Compound 246, 2-((1S,6S)-6-aminocyclohex-3-en-1-yl)-3-methyl-7-((thiophen-2-ylmethyl)amino)thieno[3,2-b]pyridine-5-carbonitrile], the IC50 in assay [1] is at most 30 nM; in the assay on ATXN3 pre-mRNA it was 30 to 300 nM.

Consider `Cc1c([C@H]2CC=CC[C@@H]2N)sc2c(NCc3ccsc3)cc(Cl)nc12` [Compound 247, 2-((1S,6S)-6-aminocyclohex-3-en-1-yl)-5-chloro-3-methyl-N-(thiophen-3-ylmethyl)thieno[3,2-b]pyridin-7-amine], for which the IC50 (in assay [1]; with ATXN3 pre-mRNA) was 30 to 300 nM each time.

Regarding `N[C@H]1CCCO[C@@H]1c1c(Br)c2nc(Cl)nc(NCc3cccs3)c2n1C(F)F` [Compound 248, 6-((2S,3S)-3-aminotetrahydro-2H-pyran-2-yl)-7-bromo-2-chloro-5-(difluoromethyl)-N-(thiophen-2-ylmethyl)-5H-pyrrolo[3,2-d]pyrimidin-4-amine], the IC50 (in assay [1]; with ATXN3 pre-mRNA) was 30 to 300 nM in each case.

For the compound `CC#CCNc1cc(Cl)nc2c(Br)c([C@H]3CC(C)=C(C)C[C@@H]3N)sc12` [Compound 249, 2-((1S,6S)-6-amino-3,4-dimethylcyclohex-3-en-1-yl)-3-bromo-N-(but-2-yn-1-yl)-5-chlorothieno[3,2-b]pyridin-7-amine], the results for the IC50 (in assay [1]; in the assay with ATXN3 pre-mRNA) were 30 to 300 nM and at most 30 nM, respectively.

For `CC#CCNc1cc(Cl)nc2c(Cl)c([C@H]3CC=CC[C@@H]3N)sc12` [Compound 250, 2-((1S,6S)-6-aminocyclohex-3-en-1-yl)-N-(but-2-yn-1-yl)-3,5-dichlorothieno[3,2-b]pyridin-7-amine], the IC50 (in assay [1]; in the assay on ATXN3 pre-mRNA) was 30 to 300 nM each time.

Take `N[C@H]1CCCO[C@@H]1c1sc2c(NCc3ccncc3)cc(Cl)nc2c1Br` [Compound 251, 2-((2S,3S)-3-aminotetrahydro-2H-pyran-2-yl)-3-bromo-5-chloro-N-(pyridin-4-ylmethyl)thieno[3,2-b]pyridin-7-amine]: the IC50 in assay [1] is 30 to 300 nM; in the assay with ATXN3 pre-mRNA it was at most 30 nM.

For `Cc1c([C@H]2CC=CC[C@@H]2N)sc2c(NCc3ccncc3F)nc(Cl)nc12` [Compound 253, 6-((1S,6S)-6-aminocyclohex-3-en-1-yl)-2-chloro-N-((3-fluoropyridin-4-yl)methyl)-7-methylthieno[3,2-d]pyrimidin-4-amine], the IC50 in assay [1] is 30 to 300 nM; in the assay on ATXN3 pre-mRNA it was at most 30 nM.

On to `N[C@H]1CCCO[C@@H]1c1c(I)c2nc(Cl)nc(NCc3cccs3)c2n1C(F)F` [Compound 254, 6-((2S,3S)-3-aminotetrahydro-2H-pyran-2-yl)-2-chloro-5-(difluoromethyl)-7-iodo-N-(thiophen-2-ylmethyl)-5H-pyrrolo[3,2-d]pyrimidin-4-amine], for which the IC50 (in assay [1]; with ATXN3 pre-mRNA) was 30 to 300 nM in each case.
